Experimental data as given in US6184396A, “Triazole derivative or salt thereof, preparation process thereof and pharmaceutical containing said compound as an effective ingredient” (SSP Co., Ltd., priority 1998, dated 2001).
Converted amounts (≈) assume the structure as drawn.

Assays:
C. albicans IFM 40009 = experiment: Test 3: Action against Candida albicans (in vivo); design: species or system C. albicans; mice (ICR (CRJ: CD-1), male, 4-week-old); conditions: mice infected i.v. with C. albicans, 1.25 mg/kg oral, 1 hour after inoculation then once a day for 4 days from 24 hours; for Surviving mice on Day 14, number of surviving mice/total number in group: control 0/11; for Average Survival days: control 4.5 days, *** p < 0.001 relative to control
Procedure: Test 3: Action against Candida albicans (in vivo)
After 4-week-old, male, ICR (CRJ: CD-1) mice were fasted for 6 hours, C. albicans IFM 40009 was inoculated to the tail vein of each of the mice to give an amount of 3.0×10^6 cells/mouse, whereby infection was caused. A control group consisted of 11 mice, while a medicament-administered group consisted of 5 mice. The medicament dissolved in 20% polyethylene glycol was orally administered 1 hour after the inoculation of the fungus and from 24 hours after the inoculation, it was administered once a day for 4 straight days, each in an amount of 1.25 mg/kg. The survival condition on Day 14 after the infection was compared. In addition, the survival days of the control group and the medicament-administered group were detected by the Kaplan-Meier method (Cox mantel test). Incidentally, Fluconazole was employed as a medicament for comparison.

A. fumigatus IFM 40808 = experiment: Test 2: Action against Aspergillus fumigatus (in vitro); assay type: cell-based; conditions: IFM40808, 0.165M MOPS-containing RPMI 1640, pH 7, almar Blue, 35° C., 48 hours
Procedure: Test 2: Action against Aspergillus fumigatus (in vitro)
They were incubated at 35° C. for 48 hours.

C. albicans ATCC 44859 = experiment: Test 1: Action against Candida albicans (in vitro); assay type: cell-based; conditions: ATCC44859, minimum concentration with apparent suppression of mycelial type growth vs medicament-free control, MEM medium + 10% fetal bovine serum, 37° C., 24 hours, CO2, read-out: Terminal point C. albicans
Procedure: Test 1: Action against Candida albicans (in vitro)
The resulting mixture was incubated at 37° C. for 24 hours in a CO2 gas incubator. After incubation, a morphological change of C. albicans was observed under an inverted microscope. The minimum medicament concentration permitting the apparent suppression of mycerial type growth compared with that of a medicament-free control was designated as a terminal point (ng/ml).

`O=S(=O)(C1CC1)C(F)(F)C(O)(Cn1cncn1)c1ccc(F)cc1F` (racemic) [Example 12, 1-(cyclopropylsulfonyl)-2-(2,4-difluorophenyl)-1,1-difluoro-3-(1H-1,2,4-triazol-1-yl)-2-propanol] was tested, and the “Surviving mice on Day 14, number of surviving mice/total number in group” value (C. albicans IFM 40009) was 4/5, the “Average Survival days” value (C. albicans IFM 40009) was 14.00 days and the MIC (A. fumigatus IFM 40808) was 8 µg/mL (≈ 21.1 µM). For the same molecule, the MIC (C. albicans ATCC 44859) was 0.0313 µg/mL.
With `OC(Cn1cncn1)(Cn1cncn1)c1ccc(F)cc1F` [Fluconazole, reference compound] the “Surviving mice on Day 14, number of surviving mice/total number in group” value (C. albicans IFM 40009) was 1/5, the “Average Survival days” value (C. albicans IFM 40009) was 11.0 days and the MIC (A. fumigatus IFM 40808) was over 128 µg/mL. For the same molecule, the MIC (C. albicans ATCC 44859) was 0.25 µg/mL.
In the case of `O=S(=O)(C1CC1)C(F)(F)C(O)(Cn1cncn1)c1ccc(F)cc1F` (single isomer, unassigned; (-)) [Example 17(2), (-)-1-(Cyclopropylsulfonyl)-2-(2,4-difluorophenyl)-1,1-difluoro-3-(1H-1,2,4-triazol-1-yl)-2-propanol], the MIC (A. fumigatus IFM 40808) is reported as 2 µg/mL (≈ 5.27 µM) and the MIC (C. albicans ATCC 44859) is reported as 0.0156 µg/mL.
Work on `OC(Cn1cncn1)(c1ccc(F)cc1)C(F)(F)SC1CC1` (stereo not drawn) [Example 8, 1-(cyclopropylthio)-1,1-difluoro-2-(4-fluorophenyl)-3-(1H-1,2,4-triazol-1-yl)-2-propanol] yielded an MIC (A. fumigatus IFM 40808) of 8 µg/mL (≈ 24.3 µM) and an MIC (C. albicans ATCC 44859) of 0.0156 µg/mL.
For `COC(Cn1cncn1)(c1ccc(F)cc1F)C(F)(F)S(=O)(=O)C1CC1` (stereo not drawn) [Example 15, 1-[3-(cyclopropylsulfonyl)-2-(2,4-difluorophenyl)-3,3-difluoro-2-methoxypropyl]-1H-1,2,4-triazole], the “Surviving mice on Day 14, number of surviving mice/total number in group” value (C. albicans IFM 40009) was 4/5 and the “Average Survival days” value (C. albicans IFM 40009) was 13.4 days.
Molecule `OC(Cn1cncn1)(c1ccc(F)cc1F)C(F)(F)SC1CC1` (stereo not drawn) [Example 7, 1-(cyclopropylthio)-2-(2,4-difluorophenyl)-1,1-difluoro-3-(1H-1,2,4-triazol-1-yl)-2-propanol] has an MIC (A. fumigatus IFM 40808) of 2 µg/mL (≈ 5.76 µM) and an MIC (C. albicans ATCC 44859) of 0.0078 µg/mL.
In the case of `COC(Cn1cncn1)(c1ccc(F)cc1F)C(F)(F)SC1CC1` (stereo not drawn) [Example 10, 1-[3-(cyclopropylthio)-2-(2,4-difluorophenyl)-3,3-difluoro-2-methoxypropyl]-1H-1,2,4-triazole], the MIC (A. fumigatus IFM 40808) is reported as 32 µg/mL (≈ 88.6 µM) and the MIC (C. albicans ATCC 44859) is reported as 0.0313 µg/mL.
